Data taken from paper PMC6556873, “Rapid Covalent-Probe Discovery by Electrophile-Fragment Screening” (Journal of the American Chemical Society, 2019).
Like-named read-outs stand apart in the source and are kept apart here.

Columns and labels:
BSA = molecular target: T1, BSA (Bos taurus, UniProt P02769); parameters: Intact protein LC/MS covalent labelling, fragments in pools of five, 200 uM each, 4 °C; details: 24 h, 4 °C, pool of five; 200 µM; covalent
T1 construct: gene ALB
Method: (§1) Incubations were performed at 200 μM for each compound and 2 μM of protein (10 μM for BSA) for 24 h at 4 °C with moderate shaking. Incubation buffers varied among proteins (PBS pH 7.4 for QSOX1 and BSA; 10 mM HEPES pH 7.5, 0.3 M NaCl, 0.5 mM TCEP for PCAF, UPS8, and NUDT7; […]; 10 mM Na2HPO4 pH 7.5 100 mM NaCl 5 mM β-mercaptoethanol for NV3CP; 20 mM Na phosphate pH 7.5 for NNMT; […]. The reaction was stopped by quenching with formic acid, 0.4% final concentration. Each protein was incubated with the electrophilic library in pools of five compounds per well. The pool’s composition maximized the difference in mass between fragments in the same well. Incubations were performed with each fragment at 200 μM, for 24 h at 4 °C, to allow the screening of proteins that are not stable for long time periods at higher temperatures. Following incubation, we used intact protein [compound left out] chromatography/mass spectrometry (LC/MS) to identify the fragments and quantify their labeling (Figure 3A). […] There was good agreement between the percent of labeling of NUDT7 by 100 random individual compounds and that obtained in pools of five (R^2=0.78; Figure S6 and Data set 2 in the Supporting Information).

NUDT7 = molecular target: T2, NUDT7 (Homo sapiens, UniProt P0C024); parameters: Intact protein LC/MS covalent labelling, fragments in pools of five, 200 uM each, 4 °C; details: 24 h, 4 °C, pool of five; 200 µM; covalent
T2 construct: residues 14-235, E. coli, pNIC28-Bsa4, N-terminal His6 tag removed by TEV, construct 26672 Da
T2 sequence (P0C024 14-235): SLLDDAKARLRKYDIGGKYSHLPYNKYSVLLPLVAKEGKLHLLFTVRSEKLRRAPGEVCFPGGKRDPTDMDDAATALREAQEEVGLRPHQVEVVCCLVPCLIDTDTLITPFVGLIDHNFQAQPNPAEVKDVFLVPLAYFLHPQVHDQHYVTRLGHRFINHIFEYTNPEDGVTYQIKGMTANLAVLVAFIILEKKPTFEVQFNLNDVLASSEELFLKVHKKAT
Method: as §1

OTUB2 (OTUB2A) = molecular target: T3, OTUB2 (OTUB2A) (Homo sapiens, UniProt Q96DC9); parameters: Intact protein LC/MS covalent labelling, fragments in pools of five, 200 uM each, 4 °C; details: 24 h, 4 °C, pool of five; 200 µM; covalent
T3 construct: full length residues 1-234, E. coli BL21(DE3)-R3, His tag removed by TEV, construct 27312 Da
T3 sequence (Q96DC9 1-234): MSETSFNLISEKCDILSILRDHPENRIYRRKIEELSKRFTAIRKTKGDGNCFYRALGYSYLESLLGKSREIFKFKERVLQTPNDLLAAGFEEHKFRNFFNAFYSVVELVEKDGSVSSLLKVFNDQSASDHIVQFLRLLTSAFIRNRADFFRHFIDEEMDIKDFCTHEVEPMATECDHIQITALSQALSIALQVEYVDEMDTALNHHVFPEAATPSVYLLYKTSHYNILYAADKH
Method: as §1

PCAF = molecular target: T4, PCAF (Homo sapiens, UniProt Q92831); parameters: Intact protein LC/MS covalent labelling, fragments in pools of five, 200 uM each, 4 °C; details: 24 h, 4 °C, pool of five; 200 µM; covalent
T4 construct: gene KAT2B
T4 sequence (Q92831 whole entry, the tested form may be a part): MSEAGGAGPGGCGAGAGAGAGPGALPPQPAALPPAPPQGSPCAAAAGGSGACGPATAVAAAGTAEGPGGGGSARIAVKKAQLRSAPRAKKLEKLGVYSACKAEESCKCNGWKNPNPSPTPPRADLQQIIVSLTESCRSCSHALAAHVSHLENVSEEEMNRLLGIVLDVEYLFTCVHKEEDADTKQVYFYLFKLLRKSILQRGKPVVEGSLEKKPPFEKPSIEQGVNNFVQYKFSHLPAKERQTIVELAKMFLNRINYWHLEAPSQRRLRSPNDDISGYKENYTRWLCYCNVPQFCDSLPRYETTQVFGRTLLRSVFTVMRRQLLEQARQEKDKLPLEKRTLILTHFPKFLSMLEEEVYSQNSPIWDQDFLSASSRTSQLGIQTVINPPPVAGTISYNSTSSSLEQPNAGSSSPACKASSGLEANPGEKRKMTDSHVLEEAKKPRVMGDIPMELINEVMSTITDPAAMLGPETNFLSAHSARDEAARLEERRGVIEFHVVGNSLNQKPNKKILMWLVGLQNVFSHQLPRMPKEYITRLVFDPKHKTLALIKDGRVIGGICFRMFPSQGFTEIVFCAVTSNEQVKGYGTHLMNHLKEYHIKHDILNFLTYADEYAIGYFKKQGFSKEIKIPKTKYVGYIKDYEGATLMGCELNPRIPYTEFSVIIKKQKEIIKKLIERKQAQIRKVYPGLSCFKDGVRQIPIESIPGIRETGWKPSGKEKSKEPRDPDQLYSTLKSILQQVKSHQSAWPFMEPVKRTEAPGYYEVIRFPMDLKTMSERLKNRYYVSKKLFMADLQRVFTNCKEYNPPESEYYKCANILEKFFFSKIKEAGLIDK
Method: as §1

in vitro [1] = experiment: in vitro; parameters: species or system CCD841, HEK293; details: human, hb2 cells, read-out: HB-2 Cells Viability (%)
in vitro [2] = experiment: in vitro; parameters: species or system HB2, HEK293; details: human, ccd841 cells
in vitro [3] = experiment: in vitro; parameters: species or system HB2, CCD841; details: human, hek293 cells

T1 sequence (P02769 whole entry, the tested form may be a part): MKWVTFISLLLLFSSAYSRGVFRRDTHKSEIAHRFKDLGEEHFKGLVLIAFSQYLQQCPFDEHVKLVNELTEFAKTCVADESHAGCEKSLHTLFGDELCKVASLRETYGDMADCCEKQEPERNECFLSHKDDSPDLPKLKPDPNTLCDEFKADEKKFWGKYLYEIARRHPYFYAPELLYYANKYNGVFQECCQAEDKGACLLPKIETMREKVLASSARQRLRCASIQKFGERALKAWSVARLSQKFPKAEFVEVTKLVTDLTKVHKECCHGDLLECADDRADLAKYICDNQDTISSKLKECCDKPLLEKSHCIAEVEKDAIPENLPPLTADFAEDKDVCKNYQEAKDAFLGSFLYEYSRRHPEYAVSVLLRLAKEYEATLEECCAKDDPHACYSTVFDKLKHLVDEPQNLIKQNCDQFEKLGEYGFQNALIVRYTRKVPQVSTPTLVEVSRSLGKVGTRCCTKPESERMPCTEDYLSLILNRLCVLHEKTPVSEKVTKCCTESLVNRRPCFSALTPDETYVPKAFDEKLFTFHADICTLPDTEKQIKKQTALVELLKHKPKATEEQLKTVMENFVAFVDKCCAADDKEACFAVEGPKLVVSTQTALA

BSA (BSA)	NUDT7 (NUDT7)	OTUB2 (OTUB2 (OTUB2A))	PCAF (PCAF)	SMILES	viability at 48 h, 10 µM (in vitro [1]) [%]	viability at 48 h, 10 µM (in vitro [2]) [%]	viability at 48 h, 10 µM (in vitro [3]) [%]
0	0	0	0	C=CC(=O)NC1(C2CC2)CCOCC1 [PCM-0102450]	96.2	106	111
0	0.3	0	0	CCC1c2ccsc2CCN1C(=O)CCl (centres unmarked) [PCM-0103051]	13.5	14	6
0	0	0	0	CC(C)c1cc(NC(=O)CCl)on1 [PCM-0102132]	70.9	69.9	70.6
0	0.05	0	0	CC1CCC(C#N)(N(C)C(=O)CCl)CC1 (centres unmarked) [PCM-0102251]	16.5	55.4	3.9
0	0	0	0	C=CC(=O)N1CCC(S(=O)(=O)NC)C1 (centres unmarked) [PCM-0102463]	97.2	104	99.6
0	0	0.11	0	O=C(CCl)Nc1cccc(C(=O)O)c1 [PCM-0102696]	90.3	86.9	84.6
0	0	0	0	C=CC(=O)NC1CC(C)(C)OC1(C)C (centres unmarked) [PCM-0102562]	107	114	94.8
0	0	0.32	0	Cl.O=C(CCl)N1CCN(Cc2ccccc2F)CC1 [PCM-0102387]	24	67.2	35.1
0	0	0.15	0	C=CC(=O)N1CC2CC3CC2C1C3OC (centres unmarked) [PCM-0102649]	107	118	117
0	0	0.11	0	Cc1cccc(NC(=O)CCl)c1 [PCM-0102116]	33.7	66.4	9
0	0.07	0.31	0	CC(=O)N1CCc2cc(NC(=O)CCl)ccc21 [PCM-0102129]	33.4	50.6	5.9
0	0	0.08	0	C=CC(=O)NCc1c2c(nn1C)CCCC2 [PCM-0103044]	97.2	98.1	74.2
0	0.08	0.26	0	CN(Cc1cnn(C)c1)C(=O)CCl.Cl [PCM-0102899]	101	91.9	70.7
0	0	0	0	O=C(CCl)Nc1ccc([N+](=O)[O-])cc1C(F)(F)F [PCM-0102406]	81.5	83.1	71.9
0	0	0.28	0	O=C(CCl)Nc1cc(F)ccc1F [PCM-0102284]	38.2	58.8	17.7
0	0.05	0	0	COC(=O)c1ccc(C)c(NC(=O)CCl)c1 [PCM-0103027]	34.3	54.7	22.1
0	0	0	0	CN(CC(=O)NC(C)(C)C)C(=O)CCl [PCM-0102259]	97.2	85.2	69
0	0	0	0	C=CC(=O)N1CCC(n2nnc3c2CCCC3)CC1 [PCM-0102437]	106	92.9	91.5
0	0	0.37	0	O=C(CCl)NCc1nc2ccccc2s1 [PCM-0102803]	55.2	63.8	43
0	0.19	0.46	0	Cc1ccc(NC(=O)CCl)cc1Cl [PCM-0102208]	3.7	37.4	1.2
0	0	0	0	Cc1cc(NC(=O)CCl)n(-c2ccccc2C)n1 [PCM-0102699]	58.9	81.6	36.9
0	0	0	0	C=CC(=O)NC1CNC(=O)C1 (centres unmarked) [PCM-0102882]	108	99.1	97.3
0	0	0	0	C=CC(=O)Nc1ccc(C)cn1 [PCM-0102627]	96.7	84.1	78.8
0	0	0	0	C=CC(=O)N1CCC(c2nc(C(F)(F)F)cs2)CC1 [PCM-0102525]	95.8	128	96.6
0	0	0	0	CC12CCC(CC1=NNC(=O)CCl)C2(C)C (centres unmarked) [PCM-0102498]	25.9	14.6	2.2
0	0.06	0.27	0	COc1ccc(C)cc1NC(=O)CCl [PCM-0103043]	81.3	79.1	63.7
0	0	0.67	0	CC(C)(C)C1CCc2sc(C(=O)NNC(=O)CCl)cc2C1 (centres unmarked) [PCM-0102260]	64	29.7	10.2
0	0	0	0	C=CC(=O)N1CCC(C(=O)c2ccc3c(c2)NC(=O)C(C)O3)CC1 (centres unmarked) [PCM-0102524]	103	99.7	80.6
0	0	0	0	C=CC(=O)N1CCCN(S(=O)(=O)c2cccc3cnccc23)CC1 [PCM-0102491]	99.3	100	99.9
